# Patent US10004683B2, “Antimicrobial formulations” (Common Pharma, Inc., priority 2015, dated 2018)
# Test system: New Zealand White Rabbits
# Test: Dermal irritation test, ISO 10993-10:2010
# Conditions: rabbits inspected at 1, 24, 48 and 72 hours; scale 0 to 0.4 Negligible, 0.5 to 1.9 Slight, 2 to 4.9 Moderate, 5 to 8 Severe
# Experimental: The test was performed according to ISO 10993-10:2010. The test sample was 2% Noveon and 2% boric acid in water. A placebo was also tested which was only 2% Noveon in water. All testing was under GLP conditions. A negative control was used which was 0.9% Sodium Chloride for Injection, USP and a positive control was used which was 20% W/V of sodium dodecyl sulfate (SDS) in water.
# The test animals were inspected at times 1, 24, 48 and 72 hours.
smiles,measurement,value
"CCCCCCCCCCCCOS(=O)(=O)[O-].[Na+] [positive control, sodium dodecyl sulfate]",dermal irritation observational rankings,2-4
